Data set [1] is described as follows: Aqueous solubility of compound incubated for 90 mins under shaking condition. The class given is physicochemical. Particulars: buffer.
The nature of data set [2]: physchem. Particulars: 1-octanol/phosphate buffer, pH 7.4.
Data set [3] can be described thus: AUCinfinity in CD1 mouse at 3 mg/kg, po pretreated with ABT followed by compound treatment and measured upto 7 hrs by LC-MS/MS analysis. The class given is ADME, organism-based. On the set-up: route oral, dose 3 mg/kg, time <=7. Particulars: in vivo.
Data set [4] can be described thus: AUCinfinity in CD1 mouse at 5 mg/kg, iv pretreated with ABT followed by compound treatment and measured upto 7 hrs by LC-MS/MS analysis. The format is ADME, organism-based. On the set-up: route intravenous, dose 5 mg/kg, time <=7. Particulars: in vivo.
The nature of data set [5]: Volume of distribution at steady state in CD1 mouse at 1 mg/kg, iv pretreated with ABT followed by compound treatment and measured upto 7 hrs by LC-MS/MS analysis. The format is ADME, organism-based. Particulars: in vivo, read-out: Vdss.
Data set [6] can be described thus: Oral bioavailability in CD1 mouse at 3 mg/kg pretreated with ABT followed by compound treatment and measured upto 7 hrs by LC-MS/MS analysis. The class given is ADME, organism-based. Particulars: in vivo.
A short description of data set [7]: AUCinfinity in CD1 mouse at 1 mg/kg, iv pretreated with ABT followed by compound treatment and measured upto 7 hrs by LC-MS/MS analysis. The format is ADME, organism-based. On the set-up: route intravenous, dose 1 mg/kg, time <=7. Particulars: in vivo.
The nature of data set [8]: Oral bioavailability in CD1 mouse at 30 mg/kg pretreated with ABT followed by compound treatment and measured upto 7 hrs by LC-MS/MS analysis. Particulars: in vivo. The format is ADME, organism-based.
Data set [9] in a line: AUCinfinity in CD1 mouse at 30 mg/kg, po pretreated with ABT followed by compound treatment and measured upto 7 hrs by LC-MS/MS analysis. The format is ADME, organism-based. The arrangement: route oral, dose 30 mg/kg, time <=7. Particulars: in vivo.
Data set [10] can be described thus: Volume of distribution at steady state in CD1 mouse at 5 mg/kg, iv pretreated with ABT followed by compound treatment and measured upto 7 hrs by LC-MS/MS analysis. The class given is ADME, organism-based. Particulars: in vivo, read-out: Vdss.
Data set [11] is described as follows: Oral bioavailability in CD1 mouse at 5 mg/kg measured upto 7 hrs by LC-MS/MS analysis. Particulars: in vivo. The class given is ADME, organism-based.
Data set [12] can be described thus: AUCinfinity in CD1 mouse at 3 mg/kg, iv measured upto 7 hrs by LC-MS/MS analysis. The format is ADME, organism-based. The arrangement: route intravenous, dose 3 mg/kg, time <=7. Particulars: in vivo.
Data set [13] can be described thus: Volume of distribution at steady state in CD1 mouse at 3 mg/kg, iv pretreated with ABT followed by compound treatment and measured upto 7 hrs by LC-MS/MS analysis. The format is ADME, organism-based. Particulars: in vivo, read-out: Vdss.
Data set [14] can be described thus: Volume of distribution at steady state in CD1 mouse at 3 mg/kg, iv measured upto 7 hrs by LC-MS/MS analysis. The class given is ADME, organism-based. Particulars: in vivo, read-out: Vdss.
Data set [15] is described as follows: AUCinfinity in CD1 mouse at 85 mg/kg, iv measured upto 7 hrs by LC-MS/MS analysis. The arrangement: route intravenous, dose 85 mg/kg, time <=7. The class given is ADME, organism-based. Particulars: in vivo.
Data set [16] in a line: AUCinfinity in CD1 mouse at 5 mg/kg, po pretreated with ABT followed by compound treatment and measured upto 7 hrs by LC-MS/MS analysis. The class given is ADME, organism-based. The arrangement: route oral, dose 5 mg/kg, time <=7. Particulars: in vivo.
Data set [17] is described as follows: Volume of distribution at steady state in CD1 mouse at 85 mg/kg, iv measured upto 7 hrs by LC-MS/MS analysis. The class given is ADME, organism-based. Particulars: in vivo, read-out: Vdss.
Data set [18] can be described thus: AUCinfinity in CD1 mouse at 3 mg/kg, iv pretreated with ABT followed by compound treatment and measured upto 7 hrs by LC-MS/MS analysis. The class given is ADME, organism-based. The arrangement: route intravenous, dose 3 mg/kg, time <=7. Particulars: in vivo.

SMILES strings stand for the structures. In brackets after ≈: the same amount, converted by molar mass.

Molecule `Nc1nnc(CN(Cc2ccc(S(N)(=O)=O)cc2F)C(=O)CSc2cc(F)cc(F)c2Cl)o1` came in with a solubility at […] in data set [1] of 330 µg/mL (≈ 632 µM). The same molecule yielded a log distribution coefficient (logD) at 2 h, 25 µM in data set [2] of 1.8.
Take `N#Cc1ccc(CN(Cc2nnc(N)o2)C(=O)COc2ccccc2Cl)cn1`: in [1], the concentration in solution (solubility at […]) came to 850 µg/mL (≈ 2130 µM). The logD at 2 h, 25 µM in data set [2] was 1.
`CCc1c(F)cc(F)cc1OCC(=O)N(Cc1ccc(C#N)cc1)Cc1nnc(N)o1`: the AUC(0-inf) in data set [3] was 323 ng·h/mL; in [4] it was 1040 ng·h/mL; in [7] it was 218 ng·h/mL; in data set [9], 9180 ng·h/mL. The Vd was determined as 3.97 L/kg in data set [5] and 3.3 L/kg in [10]. Besides, the bioavailability in [6] amounted to 48.6%; in data set [8], 138%. The molecule also gave a logD at 2 h, 25 µM in [2] of 2.8.
The molecule `Nc1nnc(CN(Cc2ccc(S(N)(=O)=O)cc2F)C(=O)COc2cc(F)cc(F)c2C2CC2)o1` yielded a logD at 2 h, 25 µM in data set [2] of 2.1.
The same measure, in the same setting: with `CCc1ccccc1SCC(=O)N(Cc1ccc(C#N)cc1)Cc1nnc(N)o1` the figure was 2.5.
The same measure, in the same setting: as for `N#Cc1ccc(CN(Cc2nnc(N)o2)C(=O)COc2cc(F)cc(F)c2C2CC2)cn1`, the figure is 2.2.
On the same count and under the same terms, as for `N#Cc1ccc(CN(Cc2nnc(N)o2)C(=O)CSc2cc(F)cc(F)c2Cl)c(F)c1`, the figure is 2.6.
Molecule `N#Cc1cc(F)c(CN(Cc2nnc(N)o2)C(=O)CSc2cc(F)cc(F)c2Cl)c(F)c1` showed a solubility at […] in data set [1] of 60 µg/mL (≈ 123 µM). In addition, the logD at 2 h, 25 µM in data set [2] came to 2.4.
In data set [2], `CCc1c(F)cc(F)cc1OCC(=O)N(Cc1nnc(N)o1)Cc1ccc(S(N)(=O)=O)cc1F` showed a logD at 2 h, 25 µM of 2.1.
In the case of `N#Cc1ccc(CN(Cc2nnc(N)o2)C(=O)CSc2ccccc2CC(F)(F)F)c(F)c1`, in data set [1], the solubility at […] is 90 µg/mL (≈ 188 µM). Also, the logD at 2 h, 25 µM in [2] was determined as 2.3.
Take `[2H]C([2H])(Oc1cc(F)cc(F)c1C([2H])([2H])C([2H])([2H])[2H])C(=O)N(Cc1nnc(N)o1)Cc1ccc(S(N)(=O)=O)cc1F`: the solubility at […] in data set [1] came out at 460 µg/mL (≈ 908 µM). Moreover, the bioavailability in [11] stood at 7.4%. In addition, the AUC(0-inf) was 62100 ng·h/mL in data set [12], 24000 ng·h/mL in data set [15], 7690 ng·h/mL in data set [16] and 35300 ng·h/mL in data set [18]. Also, the figures for the Vd in data set [13], in data set [14] and in data set [17] were 0.31 L/kg, 0.34 L/kg and 10.3 L/kg, respectively. Also, the logD at 2 h, 25 µM in data set [2] worked out at 2.
In data set [2], `N#Cc1ccc(CN(Cc2nnc(N)o2)C(=O)CCc2ccccc2)cn1` registered a logD at 2 h, 25 µM of 1.5.
For `N#Cc1ccc(CN(Cc2nnc(N)o2)C(=O)COc2cc(F)cc(F)c2Cl)cn1`, in data set [2], the logD at 2 h, 25 µM was 1.4.
As for `N#Cc1ccc(CN(Cc2nnc(N)o2)C(=O)CSc2ccccc2OC(F)(F)F)c(F)c1`, the solubility at […] in data set [1] stood at 90 µg/mL (≈ 187 µM). Further, the logD at 2 h, 25 µM in data set [2] came out at 1.6.
The molecule `N#Cc1ccc(CN(Cc2nnc(N)o2)C(=O)CSc2ccccc2Cl)cc1` gave a solubility at […] in data set [1] of 120 µg/mL (≈ 290 µM). Also, in [2], the logD at 2 h, 25 µM turned out to be 2.
Molecule `CCc1c(F)cc(F)cc1OCC(=O)N(Cc1nnc(N)o1)Cc1ccc(C#N)cc1F` registered a logD at 2 h, 25 µM in data set [2] of 2.7.
The same measure, in the same setting: as for `[2H]C([2H])(Oc1cc(F)cc(F)c1C([2H])([2H])C([2H])([2H])[2H])C(=O)N(Cc1ccc(C#N)nc1)Cc1nnc(N)o1`, the figure is 2.1.
`N#Cc1ccc(CN(Cc2nnc(N)o2)C(=O)CSc2ccccc2Cl)cn1` had a solubility at […] in data set [1] of 340 µg/mL (≈ 820 µM). Further, in data set [2], the logD at 2 h, 25 µM was determined as 1.4.
In data set [1], `Nc1nnc(CN(Cc2ccc(O)nc2)C(=O)COc2cc(F)cc(F)c2C2CC2)o1` returned a solubility at […] of 150 µg/mL (≈ 348 µM). This molecule also gave a logD at 2 h, 25 µM in [2] of 2.2.
The molecule `N#Cc1ccc(CN(Cc2nnc(N)o2)C(=O)CSc2ncccc2Cl)cn1` yielded a logD at 2 h, 25 µM in [2] of 1.1.
The same measure, in the same setting: as for `CCc1c(F)cc(F)cc1O[C@H](C)C(=O)N(Cc1nnc(N)o1)Cc1ccc(C#N)cc1F`, the figure is 3; as for `[2H]C([2H])(Oc1cc(F)cc(F)c1C([2H])([2H])C([2H])([2H])[2H])C(=O)N(Cc1nnc(N)o1)Cc1ccc(C#N)cc1F`, 3.

Source of the values: ChEMBL document CHEMBL4837258, “Discovery of Novel UDP-N-Acetylglucosamine Acyltransferase (LpxA) Inhibitors with Activity against Pseudomonas aeruginosa” (J Med Chem, 2021).
